According to patent US10519177B2, “Heterocyclic compounds and uses thereof” (Plexxikon Inc., priority 2013, dated 2019):
Like-named read-outs stand apart in the source and are kept apart here.

Tests used:
BRD4-BD12 (1-477) = BRD4-BD12 (1-477) (Homo sapiens (Human), UniProt O60885); assay: Alphascreen binding assay BRD4-BD12; settings: BRD4(1 2) H4; read-out: Biochemical activity (IC50 μM) BRD4(1 2) H4
Experimental: Binding of compounds of formula (I) with bromodomain 2, 3 4 was assessed using Alphascreen binding assay. The inhibition of the interaction between bromodomain and its acetylated target protein (Filippakopoulos P et al. 2012) was measured quantitatively using recombinant BRD proteins, an acetylated Histone 4 peptide and AlphaScreen™ technology. In absence of inhibition the BRD protein bound to AlphaScreen™ nickel chelate acceptor beads can interact with the acetylated Histone 4 peptide which is immobilized by the AlphaScreen™ Streptavidin coated beads. This interaction brings donor and acceptor beads in proximity. The close proximity allows the singlet oxygen produced by laser excitation of the donor beads to reach the acceptor beads and generate a luminescence signal.
Recombinant human bromodomains containing the N-terminal bromodomain (BRD2-BD1 (71-194), BRD3-BD1 (24-144) and BRD4-BD1 (44-164)) or dual bromodomains (BRD4-BD12 (1-477), BRD4-BD12 (1-472)) were prepared and purified as described in protein expression and purification session. The peptide is human Histone H41-21K5AcK8AcK12AcK16Ac-Biotin (Anaspec CA, USA).
Protocol for BRD2, BRD3 and BRD4 assay: All components are prepared in buffer composed of 50 mM HEPES pH 7.5, 100 mM NaCl, 0.01% bovine serum albumin (“BSA”), 0.01% Triton X-100, 2 mM dithiothreitol (“DTT”). 7 μL of Bromodomain protein and 7 μL of peptide are added to wells containing 1 μL of various concentrations of test compounds of formula (I) or DMSO vehicle in an Alphaplate (PerkinElmer GA, USA) and incubated for 1 hour at room temperature. 4 μL donor and acceptor bead mixture is then added with final concentrations of 7.5 μg/ml. 30 minutes after bead addition, Alpha signal is read on the Envision spectrometer (λEx 680 nm, λEm 520-620 nm). Final concentrations of bromodomain proteins and peptide are as shown below.
All data was normalized to the mean of 16 high and 16 low control wells on each plate. A four parameter curve fit of the following formula was then applied: Y=a+(b−a)/(1+(x/c)^d) Where ‘a’ is the minimum, ‘b’ is the maximum, ‘c’ is the pIC50 and ‘d’ is the Hill slope. Protein Expression and Purification
Recombinant human bromodomains containing the N-terminal bromodomain (BRD2-BD1 (71-194), BRD3-BD1 (24-144) and BRD4-BD1 (44-164)) or dual bromodomains (BRD4-BD12 (1-477), BRD4-BD12 (1-472)) were expressed in E. coli cells (in a modified pET vector) with an N-terminal six-His tag and purified using a combination of both IMAC (Ni-affinity) and size exclusion chromatography steps.
Recombinant BRD proteins were expressed using the E. coli strain BL21-CodonPlus (DE3) (Agilent Technologies CA, USA). Cells were grown in Terrific Broth (TB) media to an OD600 of 1.2 at 37° C. at which temperature was reduced to 25° C., protein was induced with 1.0 mM ispropyl-β-D-thiogalactopyranoside (“IPTG”) for 12-18 hours and harvested by centrifugation at 8000×g for 20 minutes. Cells were re-suspended in 0.1M K2PO4 pH 8.0, 250 mM NaCl, 10% Glycerol, 0.75% NP-40, 25 mM Imidazole, 5 mM beta-mercaptoethanol (“BME”) with 0.2 mg/ml Lysosyme, 2.0 mM phenylmethanesulfonyl fluoride (“PMSF”), 25 μg/ml DNAse I, incubated on ice for 30 minutes and lyzed with a cell disruptor (MicroFluidics MA, USA). The lysate was clarified by centrifugation at 20,000×g for 2 hours. The protein was captured with Ni-NTA resin (Life Technologies, USA). Contaminating proteins were washed off with 25 mM Tris-HCl pH 8.3, 250 mM NaCl, 12% Glycerol and 50 mM Imidazole. Following 3× wash steps, protein was eluted step wise using a 50 mM HEPES pH 7.5, 500 mM NaCl and 400 mM Imidazole. The protein was further purified using Gel Filtration column 26/600 Superdex 200 (GE Biosciences NJ, USA) in 50 mM HEPES pH 7.5, 250 mM NaCl. The protein was aliquoted and flash-frozen in liquid Nitrogen.

MV-4-11 cells = assay: Oncology cell growth assay MV-4-11 (CellTiter Glo); assay type: cell-based; settings: Homo sapiens, MV4-11, 72 h, read-out: Cell activity (IC50 μM) MV-4-11 3d-Growth
Outline: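 Growth read by CellTiter Glo luminescence after 72 h compound treatment of MLL-AF4-bearing MV-4-11 cells (3000/well). Titration: 8 points, 1:3 steps, maximum 10 μM, 0.2% DMSO final. Data normalized to DMSO wells, four-parameter fit gives pIC50.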

Row | SMILES | IC50 (BRD4-BD12 (1-477)) [µM] | IC50 (MV-4-11 cells; MV-4-11, 3d growth) [µM] | IC50 (MV-4-11 cells) [µM]
1 | Cc1noc(C)c1-c1cnc2c(I)cn([C@H](c3ccccn3)C3CC3)c2c1 [P-0988, 4-[1-[(S)-cyclopropyl(2-pyridyl)methyl]-3-iodo-pyrrolo[3,2-b]pyridin-6-yl]-3,5-dimethyl-isoxazole] | < 1 | < 1 | –
2 | CC[C@@H](c1ccccn1)n1cc(-c2ccc(C)c(C(=O)O)c2)c2ncc(-c3c(C)noc3C)cc21 [P-1024, 5-[6-(3,5-dimethylisoxazol-4-yl)-1-[(1S)-1-(2-pyridyl)propyl]pyrrolo[3,2-b]pyridin-3-yl]-2-methyl-benzoic acid] | < 1 | < 1 | –
3 | COC(=O)C1(c2ccc(-c3cn(Cc4ccccn4)c4cc(-c5c(C)noc5C)cnc34)cc2)CC1 [P-0952, methyl 1-[4-[6-(3,5-dimethylisoxazol-4-yl)-1-(2-pyridylmethyl)pyrrolo[3,2-b]pyridin-3-yl]phenyl]cyclopropanecarboxylate] | < 1 | < 1 | –
4 | Cc1noc(C)c1-c1ccc2c(-c3cccc(CC(=O)O)c3)cn(C(c3ccccc3)c3ccccn3)c2c1 (stereo not drawn) [P-1050, 2-[3-[6-(3,5-dimethylisoxazol-4-yl)-1-[phenyl(2-pyridyl)methyl]indol-3-yl]phenyl]acetic acid] | < 1 | < 1 | –
5 | CC(=O)Nc1ccc(-c2cn([C@@H](C)c3ccccn3)c3cc(-c4c(C)noc4C)cnc23)cc1 [P-0984, N-[4-[6-(3,5-dimethylisoxazol-4-yl)-1-[(1S)-1-(2-pyridyl)ethyl]pyrrolo[3,2-b]pyridin-3-yl]phenyl]acetamide] | < 1 | < 1 | –
6 | COC(=O)c1ccc(-c2cn(C(c3ccccn3)C3CCOCC3)c3cc(-c4c(C)noc4C)cnc23)cc1 (stereo not drawn) [P-1035, methyl 4-[6-(3,5-dimethylisoxazol-4-yl)-1-[2-pyridyl(tetrahydropyran-4-yl)methyl]pyrrolo[3,2-b]pyridin-3-yl]benzoate] | < 1 | < 1 | –
7 | Cc1noc(C)c1-c1cnc2c(-c3ccc(C(=O)O)cc3)cn(Cc3ccc(F)cn3)c2c1 [P-0917, 4-[6-(3,5-dimethylisoxazol-4-yl)-1-[(5-fluoro-2-pyridyl)methyl]pyrrolo[3,2-b]pyridin-3-yl]benzoic acid] | < 1 | < 1 | –
8 | Cc1noc(C)c1-c1cnc2c(-c3csc(C(=O)O)c3)cn([C@@H](C)c3ccccn3)c2c1 [P-1005, 4-[6-(3,5-dimethylisoxazol-4-yl)-1-[(1S)-1-(2-pyridyl)ethyl]pyrrolo[3,2-b]pyridin-3-yl]thiophene-2-carboxylic acid] | < 1 | 1 to 10 | –
9 | Cc1ccc(-c2cn([C@@H](C)c3ccccn3)c3cc(-c4c(C)noc4C)cnc23)cn1 [P-1019, 3,5-dimethyl-4-[3-(6-methyl-3-pyridyl)-1-[(1S)-1-(2-pyridyl)ethyl]pyrrolo[3,2-b]pyridin-6-yl]isoxazole] | < 1 | < 1 | –
10 | Cc1noc(C)c1-c1cnc2c(-c3cnn(CC(F)(F)F)c3)cn(CC3(C)CCOCC3)c2c1 [P-0971, 3,5-dimethyl-4-[1-[(4-methyltetrahydropyran-4-yl)methyl]-3-[1-(2,2,2-trifluoroethyl)pyrazol-4-yl]pyrrolo[3,2-b]pyridin-6-yl]isoxazole] | < 1 | < 1 | –
11 | CC[C@@H](c1ccccn1)n1cc(-c2ccc(C#N)cc2)c2ncc(-c3c(C)noc3C)cc21 [P-0970, 4-[6-(3,5-dimethylisoxazol-4-yl)-1-[(1S)-1-(2-pyridyl)propyl]pyrrolo[3,2-b]pyridin-3-yl]benzonitrile] | < 1 | < 1 | –
12 | COc1cc(-c2cn(C(c3ccccn3)C3CCCC3)c3cc(-c4c(C)noc4C)cnc23)ccc1C(=O)O (stereo not drawn) [P-1048, 4-[1-[cyclopentyl(2-pyridyl)methyl]-6-(3,5-dimethylisoxazol-4-yl)pyrrolo[3,2-b]pyridin-3-yl]-2-methoxy-benzoic acid] | < 1 | < 1 | –
13 | COc1cc(-c2cn(Cc3cccc(C)n3)c3cc(-c4c(C)noc4C)cnc23)ccc1C(=O)O [P-0941, 4-[6-(3,5-dimethylisoxazol-4-yl)-1-[(6-methyl-2-pyridyl)methyl]pyrrolo[3,2-b]pyridin-3-yl]-2-methoxy-benzoic acid] | < 1 | < 1 | –
14 | Cc1noc(C)c1-c1cnc2c(-c3ccccc3C(=O)O)cn(CC3CCC(F)(F)CC3)c2c1 [P-0398, 2-[1-[(4,4-difluorocyclohexyl)methyl]-6-(3,5-dimethylisoxazol-4-yl)pyrrolo[3,2-b]pyridin-3-yl]benzoic acid] | < 1 | – | < 1
15 | COC(=O)c1ccc(-c2cn(C(c3ccccn3)C3CCCCC3)c3cc(-c4c(C)noc4C)cnc23)cc1 (stereo not drawn) [P-1016, methyl 4-[1-[cyclohexyl(2-pyridyl)methyl]-6-(3,5-dimethylisoxazol-4-yl)pyrrolo[3,2-b]pyridin-3-yl]benzoate] | < 1 | < 1 | –
16 | COc1cc(-c2cn([C@@H](C)c3ccccn3)c3cc(-c4c(C)noc4C)cnc23)ccc1C(=O)O [P-0938, 4-[6-(3,5-dimethylisoxazol-4-yl)-1-[(1S)-1-(2-pyridyl)ethyl]pyrrolo[3,2-b]pyridin-3-yl]-2-methoxy-benzoic acid] | < 1 | < 1 | –
17 | CC[C@@H](c1ccccn1)n1cc(-c2ccc(C(=O)O)cc2Cl)c2ncc(-c3c(C)noc3C)cc21 [P-1029, 3-chloro-4-[6-(3,5-dimethylisoxazol-4-yl)-1-[(1S)-1-(2-pyridyl)propyl]pyrrolo[3,2-b]pyridin-3-yl]benzoic acid] | < 1 | < 1 | –
18 | Cc1noc(C)c1-c1cnc2c(-c3ccc(C(=O)O)cc3)cn(C(c3ccccn3)C3CCC3)c2c1 (stereo not drawn) [P-1012, 4-[1-[cyclobutyl(2-pyridyl)methyl]-6-(3,5-dimethylisoxazol-4-yl)pyrrolo[3,2-b]pyridin-3-yl]benzoic acid] | < 1 | < 1 | –
19 | CC[C@@H](c1ccccn1)n1cc(-c2ccc(C(=O)O)cc2)c2ncc(-c3c(C)noc3C)cc21 [P-0967, 4-[6-(3,5-dimethylisoxazol-4-yl)-1-[(1S)-1-(2-pyridyl)propyl]pyrrolo[3,2-b]pyridin-3-yl]benzoic acid] | < 1 | < 1 | –
20 | CC[C@@H](c1ccccn1)n1cc(-c2ccc(C(=O)OC)cc2)c2ncc(-c3c(C)noc3C)cc21 [P-0966, methyl 4-[6-(3,5-dimethylisoxazol-4-yl)-1-[(1S)-1-(2-pyridyl)propyl]pyrrolo[3,2-b]pyridin-3-yl]benzoate] | < 1 | < 1 | –
21 | Cc1noc(C)c1-c1cnc2ccn(C(c3ccccc3)c3ccccn3)c2c1 (stereo not drawn) [P-0913, 3,5-dimethyl-4-[1-[phenyl(2-pyridyl)methyl]pyrrolo[3,2-b]pyridin-6-yl]isoxazole] | < 1 | < 1 | –
